Assay results taken from patent US20220096515A1, “Methods and Formulations for Preventing Neurological or Psychiatric Disorders” (Huntington Medical Research Institutes, priority 2020, published 2022).

What was measured:
[1] = tested on: Gabrb3^ECKO endothelial cells; assay: GABA immunostaining and cluster formation of endothelial cells after prenatal treatment; type: in vivo, mouse
Method: Primary culture of endothelial cells and endothelial cell staining: Embryonic brains were dissected under a stereo-microscope, after the NAD^+ treatment paradigm and the telencephalon was removed. Pial membranes were peeled off. Telencephalon without pial membranes from the periventricular region was pooled. Purity of endothelial cell cultures was established with endothelial cell markers and determined to be one hundred percent. Isolation and culture of endothelial cells were performed according to published methodology. Periventricular endothelial cells were prepared from CD1 (wild type), saline-treated Gabrb3^fl/fl, saline-treated Gabrb3^ECKO, and NAD^+-treated Gabrb3^ECKO embryos. Endothelial cells were labeled with anti-biotinylated isolectinB4 (1:100, Sigma), anti-GABA (1:400, Sigma), anti-DAXX (1:100, Santa Cruz Biotechnology) and anti-P2X4 (1:100, Abclonal) followed by secondary detection with AlexaFluor conjugates (Invitrogen). DAPI (Invitrogen) was used to label nuclei. Images were taken on an FSX100 microscope (Olympus). 1 million cells were examined for each immunohistochemistry condition.
Endothelial cell derived GABA plays dual roles in the embryonic forebrain. […]

Gabrb3^fl/fl mice = assay: Nesting and grooming behavior of NAD+ treated Gabrb3^fl/fl mice; type: in vivo, mouse; conditions: NAD+ vs saline treated Gabrb3^fl/fl mice
Method: Certain embodiments treat an individual at a dosage of approximately 10 mg/kg—for example, for a 60-70 kg human, a dosage would be approximately 600-700 mg. Some embodiments treat at a dosage higher than 10 mg/kg, such as up to 40 mg/kg. In many embodiments excess NAD+ may be removed from the body without deleterious effects. FIGS. 1D-1F illustrate exemplary data showing no deleterious effects from treating wildtype mice with NAD+. […] As excess NAD+ may be removed without significant effect to a treated individual, some embodiments treat a person prophylactically.
(§1) Behavioral Experiments: Mice were housed in our animal facility with a 12-hour light cycle with ad libitum access to food and water. Offspring stayed with their mothers until weaning at PND 21 after which males and females were separated. Before all behavioral testing, mice were acclimated to the testing room for 1 hour. Behavioral assays were performed according to established protocols referenced here: self-grooming, light-dark box, tail suspension test, Y-maze, open field locomotion activity, three chamber social interaction test and nest building with nestlets and with shredded paper. Both males and females were used for all behavioral assays. Experimenters scoring behaviors were blinded to the genotypes and treatment. Sample sizes for each assay are noted in figure legends.

[2] = tested on: cerebral cortex of Gabrb3^ECKO mice; assay: In vivo multiphoton laser-scanning microscopy of cortical microvasculature; set-up: species or system mouse
Method: In vivo imaging of brain microvasculature by multiphoton laser-scanning microscopy: In vivo imaging of the brain vasculature in cranial window bearing mice was performed as described previously. Briefly, a cranial window was implanted by removing circular area of skull and dura. Then, the window was sealed with a 7 mm cover glass glued to the bone. For the measurement of red blood cell (RBC) velocity and blood vessel diameter, we used multiphoton laser-scanning microscopy (MPLSM). To avoid potential tissue/vessel alteration caused by the window implantation procedure, we performed imaging at least 10 days after cranial window implantation. For imaging, mice were anesthetized with ketamine/xylazine, then tetramethylrhodamine (TAMRA)-dextran (MW 500,000) was administrated through retro-orbital injection. Using TAMRA-dextran contrast enhanced angiography, region of interest is first identified. Since the intravenously injected dye labels only the blood plasma, RBCs appear as dark patches moving within the vessel lumen. Centerline RBC velocity was measured by repetitively scanning a line along the central axis of a single blood vessel (x-t) and enabling the tracking of the motion of these dark patches. The space-time image produced by the line-scan contained diagonal dark streaks formed by moving RBCs, with a slope that was inversely proportional to the centerline RBC velocity. This space-time image was then computationally processed using Matlab and Python to extract the gradient of each streak, corresponding to the RBC velocity. Briefly, diagonal filters of varying gradients were tested for each streak until the gradient that fit best was found. […] The blood flow rate was determined through the following formula: […]
Therefore, vessel diameters, red blood cell (RBC) velocity, and blood flow were evaluated in the cerebral cortex of saline-treated Gabrb3^fl/fl mice, saline-treated Gabrb3^ECKO mice, and NAD^+-treated Gabrb3^ECKO mice (FIGS. 14A-14F) using multiphoton laser-scanning microscopy (MPLSM) and a sophisticated cranial window model. […]

Gabrb3^ECKO mice [3] = assay: Y maze spontaneous alternation test; type: in vivo, mouse; conditions: vs saline-treated Gabrb3^ECKO mice
Method: as §1
Anxiety was next assessed with the classic light-dark transition test which triggers a struggle between the desires to explore a novel environment versus natural aversion of a brightly illuminated open space. […] The Y maze spontaneous alternation test was used to evaluate for spatial learning and memory in the three groups of mice. After introduction to the center of the maze, the mice were given free access to all three arms. […] The total number of arm entries and the sequence of entries are recorded in order to calculate the percentage of alternation. […]

Gabrb3^ECKO mice [4] = assay: Three-chamber social communication test; type: in vivo, mouse
Method: as §1
This is indicative of rescue of social motivation, memory and novelty exploration in NAD^+-treated Gabrb3^ECKO mice (FIG. 14L).

[5] = adult, after prenatal treatment

## NC(=O)c1ccc[n+]([C@@H]2O[C@H](COP(=O)([O-])OP(=O)(O)OC[C@H]3O[C@@H](n4cnc5c(N)ncnc54)[C@H](O)[C@@H]3O)[C@@H](O)[C@H]2O)c1 [NAD^+]
[1]
  GABA expression (immunohistochemistry): GABA expression was also restored
  endothelial cell cluster formation: significantly improved cluster formation
Gabrb3^fl/fl mice
  grooming behavior: no significant change in grooming behavior
Gabrb3^fl/fl mice; untorn nestlet and shredded paper
  nesting behavior: no significant difference in nesting behavior
[2]; [5]
  RBC velocity in capillaries: reversed
  diameter of capillaries and collecting venules: morphological alteration was rescued
[2]; vs saline-treated Gabrb3^ECKO mice
  blood flow in capillaries and collecting venules: significantly reduced
Gabrb3^ECKO mice [3]
  percentage alternations: significant increase in percentage alternations
Gabrb3^ECKO mice [4]; sociability phase
  sociability: stranger mouse vs inanimate object: interacted with the stranger mouse for a significantly longer duration than with the inanimate object
Gabrb3^ECKO mice [4]; social novelty phase
  social novelty: stranger 2 vs familiar stranger 1: marked preference for stranger 2
